# Experiments:
# human S1P1 receptors = human S1P1 receptors (Homo sapiens, UniProt P21453); assay: GTPγ[35S] binding assay, human S1P1; type: biochemical
# human S1P2 receptors = human S1P2 receptors (Homo sapiens, UniProt O95136); assay: GTPγ[35S] binding assay, human S1P2; type: biochemical
# human S1P3 receptors = human S1P3 receptors (Homo sapiens, UniProt Q99500); assay: GTPγ[35S] binding assay, human S1P3; type: biochemical
# human S1P4 receptors = molecular target: T1, human S1P4 receptors (Homo sapiens, UniProt O95977); assay: GTPγ[35S] binding assay, human S1P4; type: biochemical; conditions: read-out: %Emax (percentage of maximum stimulation)
# T1 sequence (O95977 1-384): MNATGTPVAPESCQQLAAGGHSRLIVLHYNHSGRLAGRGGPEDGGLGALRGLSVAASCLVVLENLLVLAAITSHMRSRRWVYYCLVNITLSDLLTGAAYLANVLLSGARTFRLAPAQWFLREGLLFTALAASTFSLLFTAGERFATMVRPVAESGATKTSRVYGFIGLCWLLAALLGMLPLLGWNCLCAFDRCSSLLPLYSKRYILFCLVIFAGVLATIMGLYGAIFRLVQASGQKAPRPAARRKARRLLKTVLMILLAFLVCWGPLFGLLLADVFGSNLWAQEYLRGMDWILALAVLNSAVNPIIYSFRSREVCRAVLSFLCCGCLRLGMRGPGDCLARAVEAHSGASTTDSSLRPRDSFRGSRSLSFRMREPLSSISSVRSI
# human S1P5 receptors = human S1P5 receptors (Homo sapiens, UniProt Q9H228); assay: GTPγ[35S] binding assay, human S1P5; type: biochemical; conditions: read-out: %Emax (percentage of maximum stimulation), S1P5
# human S1P5 receptors, sequence (Q9H228 whole entry): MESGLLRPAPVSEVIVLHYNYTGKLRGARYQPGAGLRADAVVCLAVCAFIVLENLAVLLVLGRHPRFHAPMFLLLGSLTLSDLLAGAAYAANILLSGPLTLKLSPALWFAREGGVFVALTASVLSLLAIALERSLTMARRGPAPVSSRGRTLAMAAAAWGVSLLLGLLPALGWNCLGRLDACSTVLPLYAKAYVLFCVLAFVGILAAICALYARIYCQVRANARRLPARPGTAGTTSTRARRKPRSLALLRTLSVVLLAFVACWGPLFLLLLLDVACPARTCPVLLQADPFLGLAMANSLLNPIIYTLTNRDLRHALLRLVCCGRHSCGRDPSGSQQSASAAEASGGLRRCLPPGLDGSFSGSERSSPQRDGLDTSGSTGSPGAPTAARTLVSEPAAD
# [1] = molecular target: myc-tagged human S1P1 receptors (Homo sapiens, UniProt P21453); assay: Agonist-mediated internalization of S1P1 receptors in CHO cells by flow cytometry; type: cell-based; conditions: for Internalization of S1P1 receptors: 1 h incubation
# myc-tagged human S1P1 receptors, sequence (P21453 whole entry): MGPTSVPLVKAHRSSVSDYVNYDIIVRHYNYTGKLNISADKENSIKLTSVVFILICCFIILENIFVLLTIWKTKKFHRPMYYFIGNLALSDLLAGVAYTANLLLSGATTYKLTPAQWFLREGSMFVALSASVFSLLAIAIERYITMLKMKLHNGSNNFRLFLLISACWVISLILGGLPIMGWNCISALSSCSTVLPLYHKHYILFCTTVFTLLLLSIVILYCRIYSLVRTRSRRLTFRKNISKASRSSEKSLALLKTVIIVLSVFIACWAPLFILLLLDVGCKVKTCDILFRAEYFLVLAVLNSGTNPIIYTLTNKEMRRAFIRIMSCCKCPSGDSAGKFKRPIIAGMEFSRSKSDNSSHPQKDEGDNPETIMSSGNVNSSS
# [2] = test system: experimental autoimmune encephalomyelitis (EAE); assay: Chronic EAE in DA rats, therapeutic dosing; type: in vivo; conditions: DA rat, days 11–34
# [3] = test system: peripheral absolute lymphocyte count (ALC); assay: Phase I multiple-dose study: absolute lymphocyte count; type: in vivo, human; conditions: for Difference in mean %Emax of ALC, BAF312 versus placebo: 28 days, ANCOVA; for Average time to reach the lower limit of the normal ALC range after stopping dosing at steady state: predicted by pharmacokinetic/pharmacodynamic model
# [4] = test system: leukocyte subsets in whole blood; assay: Phase I multiple-dose study: leukocyte subsets by flow cytometry; type: in vivo, human; conditions: 10 mg
# heart rate = assay: Phase I multiple-dose study: heart rate (Holter monitoring); type: in vivo, human; conditions: for Decrease in mean heart rate Emax0-24 versus placebo: day 1; for Mean heart rate reduction from time-matched day −1: 2 h post dose of day 1
# healthy subjects = assay: Phase I multiple-dose study: safety and tolerability; type: in vivo, human
# clinical = conditions: both, human, in vivo, Complete wash-out (five effective half-lives) after treatment discontinuation
# [5] = Phase I multiple-dose study: plasma pharmacokinetics; conditions: for AUCτ / concentration at 28 day / half-life at 28 day: geometric mean [%CV]; for Cmax at 28 day / Tmax / Tmax at 28 day / concentration at 28 day / half-life at 28 day / Cmax / half-life: both, human, plasma, oral; for half-life at 28 day: based on drug accumulation at steady-state
# human S1P3 receptors, sequence (Q99500 whole entry): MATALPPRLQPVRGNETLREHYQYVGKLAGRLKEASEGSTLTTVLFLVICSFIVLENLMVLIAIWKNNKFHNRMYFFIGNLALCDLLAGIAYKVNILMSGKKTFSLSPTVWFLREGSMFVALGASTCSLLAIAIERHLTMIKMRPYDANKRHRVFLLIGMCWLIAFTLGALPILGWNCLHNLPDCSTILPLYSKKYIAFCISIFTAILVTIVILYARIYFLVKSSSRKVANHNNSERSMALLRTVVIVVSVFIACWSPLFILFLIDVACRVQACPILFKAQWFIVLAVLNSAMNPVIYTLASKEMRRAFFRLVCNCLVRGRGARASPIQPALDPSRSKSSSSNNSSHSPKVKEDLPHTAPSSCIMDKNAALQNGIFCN
# human S1P1 receptors, sequence (P21453 whole entry): as the sequence (P21453 whole entry) above
# human S1P2 receptors, sequence (O95136 whole entry): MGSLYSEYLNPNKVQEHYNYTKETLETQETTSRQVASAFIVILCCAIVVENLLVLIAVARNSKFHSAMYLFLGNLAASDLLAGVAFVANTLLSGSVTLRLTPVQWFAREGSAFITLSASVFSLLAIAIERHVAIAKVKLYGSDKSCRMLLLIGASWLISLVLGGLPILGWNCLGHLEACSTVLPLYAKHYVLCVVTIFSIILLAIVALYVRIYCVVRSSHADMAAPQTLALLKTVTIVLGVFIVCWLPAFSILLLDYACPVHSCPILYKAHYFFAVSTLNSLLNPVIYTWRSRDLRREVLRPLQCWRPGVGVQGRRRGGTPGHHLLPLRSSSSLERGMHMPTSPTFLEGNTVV
smiles,measurement,setting,value
"CCc1cc(/C(C)=N/OCc2ccc(C3CCCCC3)c(C(F)(F)F)c2)ccc1CN1CC(C(=O)O)C1 [BAF312, 1-(4-{1-[(E)-4-cyclohexyl-3-trifluoromethylbenzyloxyimino]-ethyl}-2-ethylbenzyl)-azetidine-3-carboxylic acid]",EC50,human S1P1 receptors,0.39 ± 0.07 nM
same,EC50,human S1P2 receptors,> 10000 nM
same,EC50,human S1P3 receptors,> 1000 nM
same,Emax,human S1P4 receptors,90 ± 9%
same,Emax,human S1P5 receptors,~100%
same,Internalization of S1P1 receptors,"[1]; 10 nM, 2 experiments",86 ± 4%
same,Internalization of S1P1 receptors,"[1]; 100 nM, 2 experiments",99 ± 3%
same,S1P1 receptors localized intracellularly,"[1]; 1 µM, 1 h incubation followed by 3 h without compound, mean ± SD",87 ± 0.5%
same,Internalization of S1P1 receptors,"[1]; 1 µM, mean ± SD",91 ± 4%
same,Surface expression of S1P1 receptors,[1]; incubated for up to 12 h without compound (data not shown),remained low
same,Disease scores (AUC from days 12 to 34) versus vehicle,[2]; 0.03 mg·kg^−1 oral once daily,borderline effect
same,Disease scores (AUC from days 12 to 34) versus vehicle,[2]; 0.3 mg·kg^−1 oral once daily,significant reduction
same,Disease scores (AUC from days 12 to 34) versus vehicle,[2]; 3 mg·kg^−1 oral once daily,significant reduction
same,"Difference in mean %Emax of ALC, BAF312 versus placebo","[3]; 0.3 mg once daily, 90% CI in parentheses",32.8%
same,"Difference in mean %Emax of ALC, BAF312 versus placebo",[3]; 1 mg once daily,61.6%
same,Average time to reach the lower limit of the normal ALC range after stopping dosing at steady state,[3]; 1 mg,approximately 24 h
same,"Difference in mean %Emax of ALC, BAF312 versus placebo",[3]; 2.5 mg once daily,56.7%
same,"Difference in mean %Emax of ALC, BAF312 versus placebo",[3]; 10 mg once daily,74.6%
same,Average time to reach the lower limit of the normal ALC range after stopping dosing at steady state,[3]; 10 mg,~123 h
same,"Difference in mean %Emax of ALC, BAF312 versus placebo",[3]; 20 mg once daily,76.1%
same,Time of maximal ALC reduction post dose,"[3]; day 1, healthy subjects",4 to 6 h
same,Study day by which ALC returned to the normal range,"[3]; treatment stopped on day 28, dose groups 0.3–10 mg",≤ 35 days
same,Effect on B and T cell counts,[4]; baseline to end of treatment,strong reduction in cell counts
same,Effect on monocyte counts,[4]; baseline to end of treatment,Little or no effect
same,Leukocyte subset cell counts after discontinuation,[4]; three weeks after discontinuation (data not shown),returned to baseline levels
same,Decrease in mean heart rate Emax0-24 versus placebo,"heart rate; 0.3 mg, 90% CI in brackets, not significant",−0.92 bpm
same,Decrease in mean heart rate Emax0-24 versus placebo,heart rate; 1 mg,−6.41 bpm
same,Decrease in mean heart rate Emax0-24 versus placebo,heart rate; 2.5 mg,−5.44 bpm
same,Mean heart rate reduction from time-matched day −1,heart rate; 10 mg,approximately 24 ± 6 bpm
same,Decrease in mean heart rate Emax0-24 versus placebo,heart rate; 10 mg,−13.88 bpm
same,Mean heart rate reduction from time-matched day −1,heart rate; 20 mg,~29 ± 10 bpm
same,Subjects with asymptomatic second degree atrioventricular (AV) block,"heart rate; active groups, each on day 1",three
same,Time of maximum decrease in mean ventricular heart rate post dose,"heart rate; day 1, all (0.3–20 mg) doses",~2 h
same,Subjects experiencing AEs,healthy subjects; 0.3 mg dose group,three
same,Subjects experiencing AEs,healthy subjects; 1 mg dose group,three
same,Subjects experiencing AEs,healthy subjects; 2.5 mg dose group,four
same,Subjects experiencing AEs,healthy subjects; 10 mg dose group,six
same,Subjects experiencing AEs,healthy subjects; 20 mg dose group,six
same,Macular oedema by ocular coherence tomography,"healthy subjects; 0.3–20 mg once daily, 28 days",no signs of macular oedema
same,Tolerability,"healthy subjects; 0.3–20 mg once daily, 28 days, healthy subjects",well tolerated
same,Elevations in alanine aminotransferase level,healthy subjects; by dose group,occurred most frequently in subjects in the BAF312 20 mg dose group
same,Pulmonary function tests versus placebo,healthy subjects; not related to dose and day (data not shown),"mild to moderate, statistically significant decreases"
same,Visual acuity scores over treatment days,healthy subjects; regardless of the dose,no notable changes
same,Serious AEs,healthy subjects; whole trial,no serious AEs
same,half-life,clinical,151 h
same,AUC0–24 h,"[5]; Day 1, 0.3 mg·day^−1",36.2 [10] h^*ng·mL^−1
same,AUC0–24 h,"[5]; Day 1, 1 mg·day^−1",136 [8] h^*ng·mL^−1
same,AUC0–24 h,"[5]; Day 1, 2.5 mg·day^−1",293 [85] h^*ng·mL^−1
same,AUC0–24 h,"[5]; Day 1, 10 mg·day^−1",1370 [11] h^*ng·mL^−1
same,AUC0–24 h,"[5]; Day 1, 20 mg·day^−1",2740 [14] h^*ng·mL^−1
same,AUCτ,"[5]; Day 28, 0.3 mg·day^−1",97.9 [19] h^*ng·mL^−1
same,AUCτ,"[5]; Day 28, 1 mg·day^−1",282 [16] h^*ng·mL^−1
same,AUCτ,"[5]; Day 28, 2.5 mg·day^−1",692 [45] h^*ng·mL^−1
same,AUCτ,"[5]; Day 28, 10 mg·day^−1",2580 [24] h^*ng·mL^−1
same,"Cmin,ss","[5]; Day 28, 20 mg·day^−1, arithmetic mean (SD)",166 (88.0) ^D ng·mL^−1
same,AUCτ,"[5]; Day 28, 20 mg·day^−1",6370 [23] h^*ng·mL^−1
same,Cmax at 28 day,[5]; 0.3 mg·day^−1,5.31 ng/mL
same,Tmax,[5]; 0.3 mg·day^−1,3 h
same,Tmax at 28 day,[5]; 0.3 mg·day^−1,3.5 h
same,concentration at 28 day,"[5]; 0.3 mg·day^−1, Cavg, ss, Day 28, 0.3 mg·day^−1",4.08 ng/mL
same,concentration at 28 day,"[5]; 0.3 mg·day^−1, Cmin,ss, Day 28, 0.3 mg·day^−1",2.83 ng/mL
same,half-life at 28 day,"[5]; 0.3 mg·day^−1, Effective T1/2, Day 28, 0.3 mg·day^−1",36.2 h
same,Cmax,[5]; 1 mg·day^−1,8.01 ng/mL
same,Cmax at 28 day,[5]; 1 mg·day^−1,14.9 ng/mL
same,Tmax,[5]; 1 mg·day^−1,4.5 h
same,Tmax at 28 day,[5]; 1 mg·day^−1,3 h
same,concentration at 28 day,"[5]; 1 mg·day^−1, Cavg, ss, Day 28, 1 mg·day^−1",11.7 ng/mL
same,concentration at 28 day,"[5]; 1 mg·day^−1, Cmin,ss, Day 28, 1 mg·day^−1",7.74 ng/mL
same,half-life at 28 day,"[5]; 1 mg·day^−1, Effective T1/2, Day 28, 1 mg·day^−1",25.2 h
same,Cmax,[5]; 2.5 mg·day^−1,17.4 ng/mL
same,Cmax at 28 day,[5]; 2.5 mg·day^−1,38.3 ng/mL
same,Tmax,[5]; 2.5 mg·day^−1,3 h
same,Tmax at 28 day,[5]; 2.5 mg·day^−1,4 h
same,concentration at 28 day,"[5]; 2.5 mg·day^−1, Cavg, ss, Day 28, 2.5 mg·day^−1",28.8 ng/mL
same,concentration at 28 day,"[5]; 2.5 mg·day^−1, Cmin,ss, Day 28, 2.5 mg·day^−1",15.2 ng/mL
same,Cmax,[5]; 10 mg·day^−1,84.1 ng/mL
same,Cmax at 28 day,[5]; 10 mg·day^−1,147 ng/mL
same,Tmax,[5]; 10 mg·day^−1,3 h
same,Tmax at 28 day,[5]; 10 mg·day^−1,3 h
same,concentration at 28 day,"[5]; 10 mg·day^−1, Cavg, ss, Day 28, 10 mg·day^−1",107 ng/mL
same,concentration at 28 day,"[5]; 10 mg·day^−1, Cmin,ss, Day 28, 10 mg·day^−1",70.6 ng/mL
same,half-life at 28 day,"[5]; 10 mg·day^−1, Effective T1/2, Day 28, 10 mg·day^−1",21.9 h
same,Cmax,[5]; 20 mg·day^−1,162 ng/mL
same,Cmax at 28 day,[5]; 20 mg·day^−1,359 ng/mL
same,Tmax,[5]; 20 mg·day^−1,4 h
same,Tmax at 28 day,[5]; 20 mg·day^−1,3 h
same,concentration at 28 day,"[5]; 20 mg·day^−1, Cavg, ss, Day 28, 20 mg·day^−1",265 ng/mL
same,half-life at 28 day,"[5]; 20 mg·day^−1, Effective T1/2, Day 28, 20 mg·day^−1",28.8 h
same,half-life,"[5]; Effective elimination half-life based on drug accumulation at steady state, range over dose groups",22 to 38 h
same,half-life,"[5]; Effective elimination half-life, mean, mean over dose groups",30 h
same,Dose proportionality of pharmacokinetics,[5]; dose range of 0.3 to 20 mg,increase proportionally with the dose
same,Time to steady-state concentrations,[5]; multiple once-daily administration,approximately 6 days
